Some test systems named below: T-47D breast; CAKI-1 renal; NCI-H460 lung; SR leukemia; UACC-257 melanoma; SF-268 CNS; OVCAR-8 ovarian; NCI-H226 lung; MDA-MB-435; SK-MEL-2 melanoma.
Common to all, as to assay: inhibition of tumour cell growth, NCI panel, 48 h

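Cultured in 96-well plates, cells were exposed to test compound for 48 hours across five concentrations. GI50 = concentration required for 50% inhibition of growth. TGI: total growth inhibition.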 A value given as a limit tells only on which side of the number the result lay.

For the compound `COc1ccc2c(c1)[C@@]1(C)CCC3c4ccc(O)cc4CCC3C1C2` (stereo partly drawn), the GI50 in the assay on T-47D breast is 11.7 µM; in the assay on CAKI-1 renal, 17.1 µM; with NCI-H460 lung it was 9.02 µM; in the assay on SR leukemia it was 16.3 µM; in the assay with UACC-257 melanoma, 17.7 µM; in the assay with SF-268 CNS, 16.3 µM. Moreover, the GI50 with OVCAR-8 ovarian was 17.1 µM; in the assay on NCI-H226 lung, 18.7 µM; in the assay on MDA-MB-435 it was 15 µM. For the same compound, the TGI was 26.8 µM in the assay with T-47D breast; 32.7 µM in the assay with CAKI-1 renal; 23.2 µM in the assay with NCI-H460 lung; > 100 µM in the assay with SR leukemia; 33.7 µM in the assay with UACC-257 melanoma; 32.6 µM in the assay on SF-268 CNS. Moreover, the TGI in the assay with OVCAR-8 ovarian came to 38.8 µM; with NCI-H226 lung it was 38.2 µM; with MDA-MB-435, 31 µM.
As to `COc1ccc(-c2cc(-c3nnc(SCC(=O)Nc4ccc(C(C)=O)cc4)o3)c3ccccc3n2)cc1`, the GI50 in the assay with T-47D breast is > 100 µM; in the assay on NCI-H460 lung, > 100 µM; in the assay on SK-MEL-2 melanoma it was 30.4 µM; in the assay with UACC-257 melanoma, > 100 µM; in the assay with SF-268 CNS, 29.1 µM; with OVCAR-8 ovarian, 48.9 µM. The GI50 in the assay on NCI-H226 lung is 43.6 µM; with MDA-MB-435 it was > 100 µM. The TGI in the assay on T-47D breast, in the assay on NCI-H460 lung, with SK-MEL-2 melanoma, with UACC-257 melanoma, with SF-268 CNS and in the assay on OVCAR-8 ovarian was > 100 µM in each case. Moreover, the TGI with NCI-H226 lung and with MDA-MB-435 was > 100 µM throughout.
As for `COc1ccc(-n2c3c(c4c(CN(C)C)c(O)c(C)cc42)CCc2ccccc2C3=O)cc1`, the GI50 in the assay on T-47D breast is > 100 µM; in the assay on CAKI-1 renal, 24.5 µM; with NCI-H460 lung, 69.1 µM; in the assay on SK-MEL-2 melanoma, 48 µM; in the assay on UACC-257 melanoma, 78.1 µM; in the assay with SF-268 CNS, 61.9 µM. The GI50 with OVCAR-8 ovarian was 31.6 µM; in the assay on NCI-H226 lung, 28.3 µM; in the assay with MDA-MB-435, 14 µM. For the same compound, the TGI in the assay on T-47D breast, with CAKI-1 renal, in the assay on NCI-H460 lung, with SK-MEL-2 melanoma, in the assay with UACC-257 melanoma and in the assay on SF-268 CNS was > 100 µM each time. The TGI was > 100 µM with OVCAR-8 ovarian, > 100 µM with NCI-H226 lung and 40.4 µM in the assay with MDA-MB-435.
As for `CN(C)S(=O)(=O)c1ccc(Nc2ccc(O)c3c2C(=O)c2c([N+](=O)[O-])ccc(O)c2C3=O)cc1`, the TGI with T-47D breast, with CAKI-1 renal, with NCI-H460 lung, in the assay with SR leukemia, in the assay on SK-MEL-2 melanoma and with UACC-257 melanoma was > 100 µM in each case. Besides, the TGI with SF-268 CNS, with OVCAR-8 ovarian and with MDA-MB-435 was > 100 µM each time.
Regarding `COc1cc2c(cc1OCCCN1CCN(c3cc(=O)oc4c(C)c(OC)ccc34)CC1)N=C[C@@H]1CCCN1C2=O`, the GI50 in the assay with T-47D breast was 1.17 µM; with CAKI-1 renal it was 2.46 µM; with NCI-H460 lung, 1.45 µM; in the assay with SR leukemia, 0.248 µM; in the assay on SK-MEL-2 melanoma, 1.09 µM; with SF-268 CNS, 0.91 µM. The GI50 with OVCAR-8 ovarian is 2.62 µM; in the assay with NCI-H226 lung, 1.88 µM; in the assay on MDA-MB-435, 1.59 µM. Moreover, the TGI was 7.17 µM in the assay on CAKI-1 renal; > 26.4 µM in the assay with NCI-H460 lung; 0.598 µM in the assay on SR leukemia; 3.98 µM in the assay on SK-MEL-2 melanoma; > 20.9 µM in the assay with SF-268 CNS; > 100 µM in the assay with OVCAR-8 ovarian. The TGI in the assay with NCI-H226 lung stood at 4.03 µM; in the assay with MDA-MB-435, 3.79 µM.
For `CN1C(=O)C(c2c[nH]c3ccccc23)=C(c2c(-c3c[nH]c4ccccc34)[nH]c3ccccc23)C1=O`, the GI50 in the assay on T-47D breast was 4.72 µM; with CAKI-1 renal, 1.48 µM; in the assay with NCI-H460 lung, 3.31 µM; in the assay on SR leukemia, 5.19 µM; with UACC-257 melanoma it was 3.59 µM; with SF-268 CNS it was 4.07 µM. For the same compound, the GI50 in the assay with OVCAR-8 ovarian is 3.2 µM; in the assay on MDA-MB-435, 1.71 µM. Further, the TGI turned out to be 66.8 µM in the assay on T-47D breast; 4.63 µM in the assay on CAKI-1 renal; 15.8 µM with NCI-H460 lung; 9.68 µM in the assay on SR leukemia; 13.2 µM with UACC-257 melanoma; 19.5 µM in the assay with SF-268 CNS. Moreover, the TGI in the assay with OVCAR-8 ovarian is 11 µM; with MDA-MB-435, 4.11 µM.
Consider `N#C[C@H]1Nc2ccccc2[C@@H](O)C1O` (stereo partly drawn), for which the TGI with T-47D breast, with CAKI-1 renal, in the assay on NCI-H460 lung, in the assay with SR leukemia, in the assay with SK-MEL-2 melanoma and with UACC-257 melanoma was > 100 µM in each case. Moreover, the TGI in the assay with SF-268 CNS, in the assay on OVCAR-8 ovarian and with MDA-MB-435 was > 100 µM in each case.
Take `CC1(C)N[P+]2(Nc3ccccc3O2)OC1=O` (stereo not drawn): the TGI with T-47D breast, in the assay with CAKI-1 renal, in the assay on NCI-H460 lung, in the assay with UACC-257 melanoma, with SF-268 CNS and in the assay on OVCAR-8 ovarian was > 100 µM throughout. The TGI with NCI-H226 lung is > 100 µM; in the assay on MDA-MB-435, 33.2 µM.
For the compound `COC(=O)[C@]12CC=C3O[C@@H]4OC5(CCCCC5)O[C@@H]4[C@H]3C1C(=O)C=CC2=O` (stereo partly drawn), the TGI is 42.5 µM in the assay with T-47D breast; 30.4 µM in the assay with CAKI-1 renal; 45.5 µM with NCI-H460 lung; > 76.8 µM with SR leukemia; 48.4 µM in the assay on SK-MEL-2 melanoma; 32.5 µM in the assay with UACC-257 melanoma. Besides, the TGI is 30 µM with SF-268 CNS, 44.1 µM in the assay on OVCAR-8 ovarian and 34.5 µM with NCI-H226 lung.
Regarding `COc1cc2c3c(n(C)c(=O)c2cc1OC)-c1cc2c(cc1/C3=C/[C@H](N)CCCCN)OCO2`, the GI50 with T-47D breast was 4.85 µM; in the assay on CAKI-1 renal, 1.23 µM; with NCI-H460 lung it was 0.196 µM; in the assay on SR leukemia, 0.123 µM; in the assay on SK-MEL-2 melanoma it was 2.68 µM; in the assay on UACC-257 melanoma, 1.98 µM. Besides, the GI50 with SF-268 CNS is 0.315 µM; in the assay on OVCAR-8 ovarian, 2.27 µM; with MDA-MB-435, 0.293 µM. Also, the TGI in the assay with T-47D breast was > 100 µM; with CAKI-1 renal it was 11.5 µM; in the assay with NCI-H460 lung, 1.62 µM; in the assay with SR leukemia, > 100 µM; in the assay with SK-MEL-2 melanoma it was 8.98 µM; in the assay on UACC-257 melanoma, 11.1 µM. In addition, the TGI with SF-268 CNS is 3.97 µM; in the assay on OVCAR-8 ovarian it was 23.4 µM; in the assay on MDA-MB-435, 4.69 µM.

Values taken from PubChem BioAssay (NCI).
